Data published in US20030232383A1, “Novel reagentless sensing system for measuring carbohydrates based on the galactose/glucose binding protein” (priority 2001, published 2003).
pKd: −log10 of the molar value. Where two headings read alike, the source gives them in different places.

Legend:
[1] = biological target: GBP mutant G148C (Gly148Cys) (Escherichia coli, UniProt P0AEE5, G171C); assay type: binding, E. coli
Experimental: (§1) Labeling the mutants of GBP with fluorescent probes. The mutant protein was first dialysed three times against either 10 mM Tris-HCl, 1 mM DTT, 0.2 mM CaCl2, pH 8.0 (for reaction with MDCC) or 10 mM HEPES, 1 mM DTT, 0.2 mM CaCl2, pH 7.4 (for reaction with acrylodan, 1,5-IAEDANS, or IANBD ester). DTT was present in the buffers to reduce any disulfide linkages that may have formed between two protein molecules. The protein was then dialysed three times against the respective buffers (with no DTT) to remove excess of the reducing agent. For the conjugation reaction, a molar ratio of fluorophore to protein of 5:1 was employed. The fluorophores were added slowly to the mutants of GBP (μM concentrations) so as to allow the cysteine residue on all the protein molecules to have an equal opportunity to react with the fluorophore. The solution was stirred constantly in a glass reaction vessel and in the dark for 4 h at 4° C. (with MDCC and acrylodan) or for 2-3 h at RT (with 1,5-IAEDANS or IANBD ester). The conjugated protein was separated from the free fluorophore by running the sample through a Sephadex G-25 column and eluting with the respective buffer.
(§2) Steady-state fluorescence studies of the fluorophore-labeled mutant proteins. The excitation and emission monochromator slit widths were both set at 2 mm. The excitation and emission wavelengths for MDCC, acrylodan, 1,5-IAEDANS, and IANBD ester were 425 nm and 475 nm, 382 nm and 509 nm, 336 nm and 490 nm, and 472 nm and 536 nm, respectively. All data were obtained at RT using quartz cuvettes with sample volumes of 1.5-2 mL. The concentrations of labeled proteins used in the steady-state fluorescence studies were in the 1×10^−7 M range. The conjugates were incubated with various concentrations of glucose and galactose for 15-20 min at RT on a shaker at 400 rpm. The samples were analyzed in the spectrofluorometer under the aforementioned parameters. Calibration plots were obtained by relating the average fluorescence change with the concentration of glucose or galactose in the sample.

[2] = biological target: GBP mutant H152C (His152Cys) (Escherichia coli, UniProt P0AEE5, H175C); assay type: binding, E. coli
Experimental: as §1, §2

GBP labeled with D-22 = GBP labeled with D-22 (Escherichia coli, UniProt P0AEE5); assay: Steady-state fluorescence of D-22-labeled (dansylated) GBP; assay type: binding, E. coli; conditions: addition of 1.6×10^−4 M sugar; protein to fluorophore 1:50, 1:100, 1:200
Experimental: Labeling GBP with D-22. GBP was dialysed three times against 0.1 M NaHCO3, pH 9.0. Three conjugation reactions with protein to fluorophore mole ratios of 1:50, 1:100, and 1:200 were carried out. Three microvials, each containing GBP, were placed in an ice bath. The fluorophore was added to the vials in small increments while the solution was being stirred. The mixture was allowed to react in the dark at 4° C. for 1 h. To eliminate the excess of unbound D-22, size exclusion chromatography was employed. A D-Salt Polyacrylamide 6000 desalting column was equilibrated with 10 mM Tris-HCl, pH 8.0. The conjugates were loaded onto the column. Elution of the labeled protein was conducted with the equilibration buffer and the conjugate finally dialysed three times against 10 mM Tris-HCl, pH 8.0.
Steady-state fluorescence studies of the labeled GBP. Fluorescence measurements were conducted with sample volumes of 1.5 mL and in quartz cuvettes. After the addition of 30 μL of D-(+)-galactose and D-(+)-glucose to the conjugate, the solution was allowed to incubate for 15 min at 4° C. while mixing at 400 rpm. The excitation and emission monochromator slit widths were set at 2 mm. The excitation wavelength was 350 nm and emission was detected at 475 nm.

[3] = biological target: GBP mutant M182C (Met182Cys) (Escherichia coli, UniProt P0AEE5, M205C); assay: Steady-state fluorescence of fluorophore-labeled GBP mutant M182C on ligand binding; parameters: species or system E. coli
Experimental: as §1, with “(with MDCC and acrylodan) or for 2-3 h at RT (with 1,5-IAEDANS or IANBD ester). The conjugated protein was separated from the free fluorophore by running the sample through a Sephadex G-25 column and eluting with the respective buffer.” left out
Steady-state fluorescence studies of the fluorophore-labeled mutant proteins. […] The concentrations of labeled proteins used in the steady-state fluorescence studies were in the 1×10^−7 M range. […] The samples were analyzed in the spectrofluorometer under the aforementioned parameters. Calibration plots were obtained by relating the average fluorescence change with the concentration of glucose or galactose in the sample.

GBP = GBP (Escherichia coli, UniProt P0AEE5); conditions: Miller et al. 1983; read-out: dissociation constants, Kd; cited from earlier work
[4] = biological target: calcium binding site of GBP (Escherichia coli, UniProt P0AEE5); conditions: Vyas et al. 1989, cited from earlier work
calcium binding site of GBP, sequence (P0AEE5 24-332 limits assumed): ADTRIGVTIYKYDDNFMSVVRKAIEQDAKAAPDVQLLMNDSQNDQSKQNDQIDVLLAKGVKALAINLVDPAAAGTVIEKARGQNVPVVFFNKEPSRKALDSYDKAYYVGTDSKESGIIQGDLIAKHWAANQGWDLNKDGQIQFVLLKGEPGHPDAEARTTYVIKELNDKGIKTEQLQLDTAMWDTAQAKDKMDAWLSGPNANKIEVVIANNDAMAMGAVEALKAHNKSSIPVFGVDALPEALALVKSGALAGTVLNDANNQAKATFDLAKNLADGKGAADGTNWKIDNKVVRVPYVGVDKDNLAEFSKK

GBP mutant G148C (Gly148Cys), sequence (P0AEE5 24-332 G171C limits assumed): as the sequence (P0AEE5 24-332 limits assumed) above, with G148C counted along it
GBP mutant H152C (His152Cys), sequence (P0AEE5 24-332 H175C limits assumed): as the sequence (P0AEE5 24-332 limits assumed) above, with H152C counted along it
GBP mutant M182C (Met182Cys), sequence (P0AEE5 24-332 M205C): as the sequence (P0AEE5 24-332 limits assumed) above, with M182C counted along it
GBP labeled with D-22, sequence (P0AEE5 24-332 limits assumed): as the sequence (P0AEE5 24-332 limits assumed) above
GBP, sequence (P0AEE5 24-332): as the sequence (P0AEE5 24-332 limits assumed) above

O=C[C@H](O)[C@@H](O)[C@@H](O)[C@H](O)CO [Galactose, D-(+)-galactose]
% quenching ([1]; G148C labeled with IAEDANS): 7%
% quenching ([1]; G148C labeled with MDCC): 16%
% quenching ([2]; H152C labeled with IANBD): 4%
% quenching ([2]; H152C labeled with MDCC): 19%
change of fluorescence signal of dansylated GBP (GBP labeled with D-22): quenching of the fluorescence signal
% quenching ([3]; M182C labeled with Acrylodan): 5%
% quenching ([3]; M182C labeled with MDCC): 6%
pKd (GBP): 3.40

[Ca+2] [calcium]
pKd ([4]; read-out: dissociation constant): 5.70

[Tb+3] [terbium]
dissociation rate [4]: 0.001 s⁻¹
